From patent US20260098061A1, “EPHA2-BINDING PENDING PEPTIDE AND COMPOSITION COMPRISING SAME” (PeptiDream Inc., priority 2022, published 2026)
Numbered stars: 1 amine (or outer) side, 2 acyl side, 3 side chain; on linkers, the order of the positions; unused ones are H or OH. Bridge positions count the residues as written; N and C are the ends. Square brackets hold non-standard residues; d marks the D form. Side chains are listed from the residue outwards. Peptide text beside a SMILES is read from it. * marks the point of attachment. NH(1-deoxy-D-glucityl) = OC[C@@H](O)[C@@H](O)[C@H](O)[C@@H](O)CN*; Trp(1-Me,7-Cl) = Cn1cc(C[C@H](N)C(=O)O)c2cccc(Cl)c21; dPhe(3-CONH2) = NC(=O)c1cccc(C[C@@H](N)C(=O)O)c1; Piperazinyl(4-CH2COOH) = O=C(O)CN1CCN(*)CC1; Trp(1-Me) = Cn1cc(C[C@H](N)C(=O)O)c2ccccc21; NMemTyr = CN[C@@H](Cc1cccc(O)c1)C(=O)O; NMe3Pal = CN[C@@H](Cc1cccnc1)C(=O)O; NMeF = CN[C@@H](Cc1ccccc1)C(=O)O; hCit = NC(=O)NCCCC[C@H](N)C(=O)O; Gly(cBu) = N[C@H](C(=O)O)C1CCC1; NMeE = CN[C@@H](CCC(=O)O)C(=O)O; Aad = N[C@@H](CCCC(=O)O)C(=O)O; dAhp(2) = CCCCC[C@@H](N)C(=O)O; Chg = N[C@H](C(=O)O)C1CCCCC1; CO = O=C([*:1])[*:2]; βAla = NCCC(=O)O

Target: T1, Recombinant Human EphA2 Fc Protein (Homo sapiens, UniProt P29317)
T1 construct: purchased Elabscience
Assay: SPR interaction analysis (Biacore T200), kinetics of peptides against EphA2
Type: binding
Settings: Recombinant Human EphA2 Fc Protein captured by Human Antibody Capture kit; single-cycle kinetics; 25° C.; HBS-P+ buffer with 1% DMSO
Outline: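 KD derived from ka and kd, fitted on baseline-subtracted sensorgrams from single-cycle kinetics of five peptide dilutions. Running buffer: HBS-P+ (pH 7.4) plus 1% DMSO, 25° C, Biacore T200. Recombinant human EphA2-Fc held on an antibody capture surface.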

| Kd | SMILES |
| --- | --- |
| < 1 nM | CN1C(=O)[C@H](CCCC(N)=O)NC(=O)[C@H](C2CCC2)NC(=O)[C@H](CC(N)=O)NC(=O)[C@H](Cc2cccc(O)c2)N(C)C(=O)[C@@H](Cc2cccc(C(N)=O)c2)NC(=O)CSC[C@@H](C(N)=O)NC(=O)[C@H](Cc2cn(C)c3ccccc23)NC(=O)[C@H](CCCCNC(=O)N2CCN(CC(=O)O)CC2)NC(=O)[C@H](Cc2cn(C)c3c(Cl)cccc23)NC(=O)[C@@H]1CCC(=O)O [PDC_EphA2-00026608, df3CON-MeF3H-N-Cbg-Hgn-MeE-W1Me7Cl-KCOpipzaa-W1Me-C-NH2] ({CH2CO}-[dPhe(3-CONH2)][NMemTyr]N[Gly(cBu)][Aad](NH2)[NMeE][Trp(1-Me,7-Cl)]K([CO-Piperazinyl(4-CH2COOH)])[Trp(1-Me)]C-NH2; thioether N-10) |
| 10 to 100 nM | CC(=O)NCCCC[C@H](NC(=O)[C@@H]1CSCC(=O)N[C@@H](Cc2ccccc2)C(=O)N[C@@H](Cc2c[nH]cn2)C(=O)N[C@@H](CC(N)=O)C(=O)N[C@@H](CC(C)C)C(=O)N[C@@H](CO)C(=O)N(C)[C@@H](Cc2ccccc2)C(=O)N[C@@H](Cc2cn(C)c3ccccc23)C(=O)N[C@@H](CCCCNC(N)=O)C(=O)N[C@@H](Cc2cn(C)c3ccccc23)C(=O)N1)C(N)=O [PDC_EphA2-00022607, F-H-N-L-S-MeF-W1Me-Hcit-W1Me-C-KAc-NH2] ({CH2CO}-FHNLS[NMeF][Trp(1-Me)][hCit][Trp(1-Me)]CK(Ac)-NH2; thioether N-10) |
| < 1 nM | CCCCC[C@H]1NC(=O)CSC[C@@H](C(N)=O)NC(=O)[C@H](CCCC(N)=O)NC(=O)[C@H]([C@@H](C)O)NC(=O)[C@H](Cc2cn(C)c3ccccc23)NC(=O)[C@H](CCCCNC(=O)N2CCN(CC(=O)O)CC2)NC(=O)[C@H](Cc2cn(C)c3ccccc23)NC(=O)[C@H](Cc2ccccc2)N(C)C(=O)[C@H](CCCC(N)=O)NC(=O)[C@H](C2CCCCC2)NC(=O)[C@H](CC(N)=O)NC(=O)[C@H](Cc2cccnc2)N(C)C1=O [PDC_EphA2-00018535, dahp-Me3Py-N-Chg-Hgn-MeF-W1Me-KCOpipzaa-W1Me-T-Hgn-C-NH2] ({CH2CO}-[dAhp(2)][NMe3Pal]N[Chg][Aad](NH2)[NMeF][Trp(1-Me)]K([CO-Piperazinyl(4-CH2COOH)])[Trp(1-Me)]T[Aad](NH2)C-NH2; thioether N-12) |
| < 1 nM | CC(=O)NCCCC[C@@H](NC(=O)CCNC(=O)[C@@H]1CSCC(=O)N[C@H](C)C(=O)N(C)[C@@H](Cc2cccnc2)C(=O)N[C@@H](CC(N)=O)C(=O)N[C@@H](CC(C)C)C(=O)N[C@@H](CCCCNC(=O)N2CCN(CC(=O)O)CC2)C(=O)N(C)[C@@H](Cc2ccccc2)C(=O)N[C@@H](Cc2cn(C)c3ccccc23)C(=O)N[C@@H](CCCCNC(=O)N2CCN(CC(=O)O)CC2)C(=O)N[C@@H](Cc2cn(C)c3ccccc23)C(=O)N[C@@H]([C@@H](C)O)C(=O)N[C@@H](CCCC(N)=O)C(=O)N1)C(N)=O [PDC_EphA2-00008092, da-Me3Py-N-L-KCOpipzaa-MeF-W1Me-KCOpipzaa-W1Me-T-Hgn-C-bA-dkAc-NH2] ({CH2CO}-[dA][NMe3Pal]NLK([CO-Piperazinyl(4-CH2COOH)])[NMeF][Trp(1-Me)]K([CO-Piperazinyl(4-CH2COOH)])[Trp(1-Me)]T[Aad](NH2)C[βAla][dK](Ac)-NH2; thioether N-12) |

More lines, now with the values behind:

| SMILES | Kd |
| --- | --- |
| C[C@@H](O)[C@@H]1NC(=O)[C@H](Cc2cn(C)c3ccccc23)NC(=O)[C@H](CCC(=O)NC[C@H](O)[C@@H](O)[C@H](O)[C@H](O)CO)NC(=O)[C@H](Cc2cn(C)c3c(Cl)cccc23)NC(=O)[C@H](Cc2ccccc2)N(C)C(=O)[C@H](CCCC(N)=O)NC(=O)[C@H](C2CCC2)NC(=O)[C@H](CC(N)=O)NC(=O)[C@H](Cc2ccccc2)N(C)C(=O)[C@@H](Cc2cccc(C(N)=O)c2)NC(=O)CSC[C@@H](C(N)=O)NC(=O)[C@H](CCCC(N)=O)NC1=O [PDC_EphA2-00019431, df3CON-MeF-N-Cbg-Hgn-MeF-W1Me7Cl-Qglucamine-W1Me-T-Hgn-C-NH2] ({CH2CO}-[dPhe(3-CONH2)][NMeF]N[Gly(cBu)][Aad](NH2)[NMeF][Trp(1-Me,7-Cl)]E(NH(1-deoxy-D-glucityl))[Trp(1-Me)]T[Aad](NH2)C-NH2; thioether N-12) | < 1 nM |
| CCCCC[C@H]1NC(=O)CSC[C@@H](C(N)=O)NC(=O)[C@H](CCCC(N)=O)NC(=O)[C@H]([C@@H](C)O)NC(=O)[C@H](Cc2cn(C)c3ccccc23)NC(=O)[C@H](CCCCNC(=O)N2CCN(CC(=O)O)CC2)NC(=O)[C@H](Cc2cn(C)c3ccccc23)NC(=O)[C@H](Cc2ccccc2)N(C)C(=O)[C@H](CCCC(=O)O)NC(=O)[C@H](CC(C)C)NC(=O)[C@H](CC(N)=O)NC(=O)[C@H](Cc2cccnc2)N(C)C1=O [PDC_EphA2-00018526, dahp-Me3Py-N-L-Hgl-MeF-W1Me-KCOpipzaa-W1Me-T-Hgn-C-NH2] ({CH2CO}-[dAhp(2)][NMe3Pal]NL[Aad][NMeF][Trp(1-Me)]K([CO-Piperazinyl(4-CH2COOH)])[Trp(1-Me)]T[Aad](NH2)C-NH2; thioether N-12) | < 1 nM |
| C[C@H]1NC(=O)CSC[C@@H](C(N)=O)NC(=O)[C@H](CCCC(N)=O)NC(=O)[C@H]([C@@H](C)O)NC(=O)[C@H](Cc2cn(C)c3ccccc23)NC(=O)[C@H](CCC(=O)NC[C@H](O)[C@@H](O)[C@H](O)[C@H](O)CO)NC(=O)[C@H](Cc2cn(C)c3ccccc23)NC(=O)[C@H](Cc2cccnc2)N(C)C(=O)[C@H](CCCC(N)=O)NC(=O)[C@H](C2CCC2)NC(=O)[C@H](CC(N)=O)NC(=O)[C@H](Cc2cccnc2)N(C)C1=O [PDC_EphA2-00013705, da-Me3Py-N-Cbg-Hgn-Me3Py-W1Me-Qglucamine-W1Me-T-Hgn-C-NH2] ({CH2CO}-[dA][NMe3Pal]N[Gly(cBu)][Aad](NH2)[NMe3Pal][Trp(1-Me)]E(NH(1-deoxy-D-glucityl))[Trp(1-Me)]T[Aad](NH2)C-NH2; thioether N-12) | < 1 nM |
| CN1C(=O)[C@H](CCC(=O)NC[C@H](O)[C@@H](O)[C@H](O)[C@H](O)CO)NC(=O)[C@H](C2CCC2)NC(=O)[C@H](CC(N)=O)NC(=O)[C@H](Cc2cccnc2)N(C)C(=O)[C@@H](Cc2cccc(C(N)=O)c2)NC(=O)CSC[C@@H](C(N)=O)NC(=O)[C@H](Cc2cn(C)c3ccccc23)NC(=O)[C@H](CCC(=O)NC[C@H](O)[C@@H](O)[C@H](O)[C@H](O)CO)NC(=O)[C@H](Cc2cn(C)c3c(Cl)cccc23)NC(=O)[C@@H]1Cc1cccnc1 [PDC_EphA2-00026604, df3CON-Me3Py-N-Cbg-Qglucamine-Me3Py-W1Me7Cl-Qglucamine-W1Me-C-NH2] ({CH2CO}-[dPhe(3-CONH2)][NMe3Pal]N[Gly(cBu)]E(NH(1-deoxy-D-glucityl))[NMe3Pal][Trp(1-Me,7-Cl)]E(NH(1-deoxy-D-glucityl))[Trp(1-Me)]C-NH2; thioether N-10) | < 1 nM |
| CC(C)C[C@@H]1NC(=O)[C@H](CC(N)=O)NC(=O)[C@H](Cc2c[nH]cn2)NC(=O)[C@H](Cc2ccccc2)NC(=O)CSC[C@@H](C(N)=O)NC(=O)[C@H](Cc2cn(C)c3ccccc23)NC(=O)[C@H](CCCCNC(N)=O)NC(=O)[C@H](Cc2cn(C)c3ccccc23)NC(=O)[C@H](Cc2ccccc2)N(C)C(=O)[C@H](CO)NC1=O [PDC_EphA2-00022417, F-H-N-L-S-MeF-W1Me-Hcit-W1Me-C-NH2] ({CH2CO}-FHNLS[NMeF][Trp(1-Me)][hCit][Trp(1-Me)]C-NH2; thioether N-10) | 10 to 100 nM |
| C[C@H]1NC(=O)CSC[C@@H](C(N)=O)NC(=O)[C@H](CCCC(N)=O)NC(=O)[C@H]([C@@H](C)O)NC(=O)[C@H](Cc2cn(C)c3ccccc23)NC(=O)[C@H](CCC(=O)NC[C@H](O)[C@@H](O)[C@H](O)[C@H](O)CO)NC(=O)[C@H](Cc2cn(C)c3ccccc23)NC(=O)[C@H](Cc2cccnc2)N(C)C(=O)[C@H](CCCC(N)=O)NC(=O)[C@H](C2CCC2)NC(=O)[C@H](CC(N)=O)NC(=O)[C@H](Cc2ccccc2)N(C)C1=O [PDC_EphA2-00013704, da-MeF-N-Cbg-Hgn-Me3Py-W1Me-Qglucamine-W1Me-T-Hgn-C-NH2] ({CH2CO}-[dA][NMeF]N[Gly(cBu)][Aad](NH2)[NMe3Pal][Trp(1-Me)]E(NH(1-deoxy-D-glucityl))[Trp(1-Me)]T[Aad](NH2)C-NH2; thioether N-12) | < 1 nM |
| CC(C)[C@@H]1NC(=O)[C@H](Cc2cn(C)c3ccccc23)NC(=O)[C@H](Cc2cccnc2)N(C)C(=O)[C@H](CCCC(N)=O)NC(=O)[C@H](C2CCC2)NC(=O)[C@H](CC(N)=O)NC(=O)[C@H](Cc2cccnc2)N(C)C(=O)[C@@H](C)NC(=O)CSC[C@@H](C(N)=O)NC(=O)[C@H](CCCC(N)=O)NC(=O)[C@H]([C@@H](C)O)NC(=O)[C@H](Cc2cn(C)c3ccccc23)NC1=O [PDC_EphA2-00010012, da-Me3Py-N-Cbg-Hgn-Me3Py-W1Me-V-W1Me-T-Hgn-C-NH2] ({CH2CO}-[dA][NMe3Pal]N[Gly(cBu)][Aad](NH2)[NMe3Pal][Trp(1-Me)]V[Trp(1-Me)]T[Aad](NH2)C-NH2; thioether N-12) | < 1 nM |
| C[C@@H](O)[C@@H]1NC(=O)[C@H](Cc2cn(C)c3ccccc23)NC(=O)[C@H](CCCCNC(=O)N2CCN(CC(=O)O)CC2)NC(=O)[C@H](Cc2cn(C)c3c(Cl)cccc23)NC(=O)[C@H](Cc2ccccc2)N(C)C(=O)[C@H](CCCC(N)=O)NC(=O)[C@H](C2CCC2)NC(=O)[C@H](CC(N)=O)NC(=O)[C@H](Cc2cccnc2)N(C)C(=O)[C@@H](Cc2cccc(C(N)=O)c2)NC(=O)CSC[C@@H](C(N)=O)NC(=O)[C@H](CCCC(N)=O)NC1=O [PDC_EphA2-00019434, df3CON-Me3Py-N-Cbg-Hgn-MeF-W1Me7Cl-KCOpipzaa-W1Me-T-Hgn-C-NH2] ({CH2CO}-[dPhe(3-CONH2)][NMe3Pal]N[Gly(cBu)][Aad](NH2)[NMeF][Trp(1-Me,7-Cl)]K([CO-Piperazinyl(4-CH2COOH)])[Trp(1-Me)]T[Aad](NH2)C-NH2; thioether N-12) | < 1 nM |
